In patent publication US20250302781A1, “METHOD FOR PRETREATING RELAPSING CANCER” (priority 2022, published 2025):

Legend:
WSU-NHL cell line = assay: WST 1 colorimetric cell proliferation assay, WSU-NHL cell line; assay type: cell-based, human; conditions: for effect of valproic acid pretreatment on cell proliferation (percent growth of treated cells): 48 h pretreatment 1 mM valproic acid
Description: (§1) In this example the combined effect of valproic acid and three different compounds as well as the single treatment on the growth of two cell lines were measured by WST 1 assay.
(§2) The cell lines used where: • SU DHL 8: human B cell lymphoma, and • WSU NHL: human B cell lymphoma
(§3) The WST 1 colorimetric assay comprised providing suspended cells (5000 cells/well) in the wells of a well plate. Tetrazolium salt (WST 1) was added to the cells and thereby colored the fluid in the wells red. Live cells reduce the tetrazolium salt via intermediate electron acceptors and forms a formazan product and the fluid in the cells turn yellow. The extent of color change reflects the proliferation of the cells and is read out as optical absorbance at 420 nm. Both cell lines were determined to be able to tolerate concentrations of up to 1% Dimethyl sulfoxide (DMSO), and this DMSO concentration was used as negative control. Additionally, 10% DMSO was used as positive control.
(§4) The cells of each cell line were incubated in a pretreatment step with 1 mM valproic acid for 48 hours followed by a treatment step with the respective compound for 24 or 48 hours, as shown in table 1 below: […]

[1] = test system: SU-DHL cell line (SU DHL 8); assay: WST 1 colorimetric cell proliferation assay, SU-DHL cell line; assay type: cell-based, human; conditions: for effect of valproic acid pretreatment on cell proliferation (percent growth of treated cells): 48 h pretreatment 1 mM valproic acid
Description: as §1, §2
as §3, with “Both cell lines were determined to be able to tolerate concentrations of up to 1% Dimethyl sulfoxide (DMSO), and this DMSO concentration was used as negative control.” left out
as §4

[2] = FIG. 2B, 5 μM of compound 48 h after 48 h 1 mM valproic acid, normalized to untreated control cells

Nc1ccn([C@@H]2O[C@H](CO)[C@@H](O)C2(F)F)c(=O)n1 [gemcitabine, Cytidine, 2′-deoxy-2′,2′-difluoro-]
effect on cell proliferation after valproic acid pretreatment (WSU-NHL cell line; FIG. 1B, 5 nM gemcitabine 24 h after 48 h 1 mM valproic acid, normalized to untreated control cells): Especially significant effects | effect on cell proliferation after valproic acid pretreatment (WSU-NHL cell line; FIG. 2B, 5 nM gemcitabine 48 h after 48 h 1 mM valproic acid, normalized to untreated control cells): Especially significant effects | cell proliferation, combination with VPA ([1]; FIG. 4A, 25 nM gemcitabine 48 h after 48 h 1 mM VPA, normalized to 1/DMSO treated cells): killed all cancer cells

N.N.O=C([O-])C1(C(=O)[O-])CCC1.[Pt+2] [carboplatin, Platinum, diammine[1,1-cyclobutanedicarboxylato(2-)-KO,KO″ ]-, (SP-4-2)-]
effect on cell proliferation after valproic acid pretreatment (WSU-NHL cell line; [2]): Especially significant effects | cells left alive, combination with VPA ([1]; FIG. 4B, 5 μM carboplatin 48 h after 48 h 1 mM VPA, normalized to untreated control cells): about 10 cells | cells left alive, combination with VPA ([1]; FIG. 4B, 25 μM carboplatin 48 h after 48 h 1 mM VPA, normalized to untreated control cells): about 10 cells

CCCC(CCC)C(=O)O [valproic acid]
effect of valproic acid pretreatment on cell proliferation (percent growth of treated cells) (WSU-NHL cell line; FIG. 1A, then 24 h treatment with bendamustine, gemcitabine or carboplatin, normalized to 1% DMSO treated cells): increased the effect of the 24 h treatment | effect of valproic acid pretreatment on cell proliferation (percent growth of treated cells) (WSU-NHL cell line; FIG. 1B, then 24 h treatment with the respective compounds, normalized to untreated control cells): increased the effect of the 24 h treatment | effect of valproic acid pretreatment on cell proliferation (percent growth of treated cells) (WSU-NHL cell line; FIG. 2A, then 48 h treatment with the respective compounds, normalized to 1/DMSO treated cells): increased the effect of the 48 h treatment | effect of valproic acid pretreatment on cell proliferation (percent growth of treated cells) (WSU-NHL cell line; FIG. 2B, then 48 h treatment with the respective compounds, normalized to untreated control cells): increased the effect of the 48 h treatment | effect of valproic acid pretreatment on cell proliferation (percent growth of treated cells) ([1]; FIG. 3A, then 24 h treatment with the respective compounds, normalized to 1% DMSO treated cells): increased the effect of the 24 h treatment | effect of valproic acid pretreatment on cell proliferation (percent growth of treated cells) ([1]; FIG. 3B, then 24 h treatment with the respective compounds, normalized to untreated control cells): increased the effect of the 24 h treatment | effect of valproic acid pretreatment on cell proliferation (percent growth of treated cells) ([1]; FIG. 4A, then 48 h treatment with the respective compounds, normalized to 1/DMSO treated cells): increased the effect of the 48 h treatment | effect of valproic acid pretreatment on cell proliferation (percent growth of treated cells) ([1]; FIG. 4B, then 48 h treatment with the respective compounds, normalized to untreated control cells): increased the effect of the 48 h treatment

Cn1c(CCCC(=O)O)nc2cc(N(CCCl)CCCl)ccc21 [bendamustine, 1H-Benzimidazole-2-butanoic acid, 5-[bis(2-chloroethyl)amino]-1-methyl-]
effect on cell proliferation after valproic acid pretreatment (WSU-NHL cell line; FIG. 1B, 5 μM bendamustine 24 h after 48 h 1 mM valproic acid, normalized to untreated control cells): Especially significant effects | effect on cell proliferation after valproic acid pretreatment (WSU-NHL cell line; [2]): Especially significant effects | cell proliferation, combination with VPA ([1]; FIG. 4A, 25 μM bendamustine 48 h after 48 h 1 mM VPA, normalized to 1/DMSO treated cells): killed all cancer cells
